Results published in patent publication US20120142750A1, “INDOLEAMINE 2,3-DIOXYGENASE PATHWAYS IN THE GENERATION OF REGULATORY T CELLS” (Regents of the University of Minnesota, priority 2005, published 2012).

System: Tregs from draining lymph nodes
Assay: Adoptive transfer of TDLN DCs and ex-vivo Treg assay
Assay type: in vivo, mouse
Settings: sustained-release pellets; Tregs isolated after four days
From the text: Adoptive transfer and ex-vivo Treg assay. The adoptive transfer model has been previously described (Munn et al., Immunit), 2005; 22:633-642; and Munn et al., J. Clin. Invest. 2004a; 114; 280-290). Briefly, DCs were sorted from TDLNs (total CD11c^+ cells), pulsed with […] (SEQ ID NO:1) peptide, and 5×10^4 DCs injected into anteriomedial thigh. For studies measuring ex vivo Treg suppressor activity, the recipient mice were pre-loaded with 5×10^6 sorted CD8^+ T-I cells. After four days, the inguinal LNs draining the site of DC injection were removed, and the CD4^+CD25^+ Tregs were isolated by FACS sorting. A titration of Tregs was added to readout assays, comprising CD4^+ A1 cells, CBA DCs, feeder layer, and H—Y peptide, all as described above. For CFSE proliferation studies, CD8^+ OT-I (wild-type or GCN2-KO background) were sorted, labeled with CFSE, and 5×10^6 cells injected intravenously into wild-type or GCN2-KO recipients. OVA-pulsed DCs from TDLNs were injected as above, and the inguinal (draining) LNs harvested after four days. LN cells were analyzed by FACS for CD8 vs 1B11 vs CFSE.

**Q.** `Cn1cc(C[C@@H](N)C(=O)O)c2ccccc21` [Inhibitor 1MT, 1-methyl-D-tryptophan] was tested. Which “ex vivo suppressor activity of Tregs from recipient mice given IDO+ DCs” value did it give?
**A.** did not develop ex vivo suppressor activity
